This passage reports MIC results from ChEMBL document CHEMBL4184333, “Expanding Benzoxazole-Based Inosine 5'-Monophosphate Dehydrogenase (IMPDH) Inhibitor Structure-Activity As Potential Antituberculosis Agents” (J Med Chem, 2018).

≈ marks a conversion by molar mass, not a printed value. Some results are limits rather than exact numbers.

This assay deals with Mycobacterium tuberculosis. The experiment in a line: Antitubercular activity against Mycobacterium tuberculosis SRMV2.6 harboring IMPDH2 Y487C mutant using 7H9/ADC/Tween medium after 1 week in absence of guanine by Alamar blue assay. In kind it is functional. (Resazurin is reduced to fluorescent resorufin, in cell work by metabolically active cells.)
The term MIC denotes the smallest concentration in the dilution series that meets the test's criterion for growth inhibition. A low value points to greater potency. Turning to `COc1ccc(OC(C)C(=O)Nc2ccc3oc(-c4ccncc4)nc3c2)cc1` (centres undefined), the MIC was over 100 µM.
Compound `C[C@H](Oc1cccc(Cl)c1Cl)C(=O)Nc1ccc2oc(-c3ccc(C(=O)O)cc3)nc2c1` gave an MIC of 25 µM (≈ 11.8 µg/mL).
The compound `C[C@H](Nc1cccc(F)c1F)C(=O)Nc1ccc2oc(-c3ccc(C#N)cc3)nc2c1` returned an MIC of over 100 µM.
On to `CCOC(=O)COc1ccc(-c2nc3cc(NC(=O)[C@H](C)Oc4cccc(Cl)c4Cl)ccc3o2)cc1`, for which the MIC stood at 3.1 µM (≈ 1.64 µg/mL).
